# Experimental data reported in ChEMBL document CHEMBL5233285, “Recent Update on the Development of PCSK9 Inhibitors for Hypercholesterolemia Treatment” (J Med Chem, 2022).
# Legend:
# [1] = target: T1, Proprotein convertase subtilisin/kexin type 9 (Homo sapiens, UniProt Q8NBP7); experiment: Inhibition of PCSK9 (unknown origin)
# [2] = test system: Mus musculus; experiment: Hypocholesterolemic activity in C57BL/6 mouse assessed as reduction in TC level at 30 mg/kg; type: functional; parameters: scale not given: the % may be the effect or the level left
# [3] = target: T1, Proprotein convertase subtilisin/kexin type 9; experiment: Binding affinity to human PCSK9
# [4] = test system: Mus musculus; experiment: Hypocholesterolemic activity in C57BL/6 mouse assessed as increase in LDLR level at 30 mg/kg; type: functional
# [5] = target: T2, PCSK9/LDLR (Homo sapiens, UniProt Q8NBP7); experiment: Inhibition of PCSK9-LDLR protein-protein interaction in human HepG2 cells assessed as increase in LDL uptake; type: cell-based
# [6] = target: Proprotein convertase subtilisin/kexin type 9 (Mus musculus, UniProt Q80W65); experiment: Binding affinity to mouse PCSK9
# [7] = target: T2, PCSK9/LDLR; experiment: Inhibition of PCSK9-LDLR (unknown origin) protein-protein interaction; type: protein assay
# [8] = target: T1, Proprotein convertase subtilisin/kexin type 9; experiment: Inhibition of PCSK9 in human HepG2 cells assessed as restoration of LDLR; type: cell-based
# [9] = target: T1, Proprotein convertase subtilisin/kexin type 9; experiment: Inhibition of PCSK9 in human HepG2 cells assessed as increase in LDL uptake at 10 uM; type: cell-based
# [10] = target: T1, Proprotein convertase subtilisin/kexin type 9; experiment: Inhibition of PCSK9 in human HepG2 cells assessed as increase in LDL uptake; type: cell-based
# T2 sequence (Q8NBP7 31-152 limits assumed): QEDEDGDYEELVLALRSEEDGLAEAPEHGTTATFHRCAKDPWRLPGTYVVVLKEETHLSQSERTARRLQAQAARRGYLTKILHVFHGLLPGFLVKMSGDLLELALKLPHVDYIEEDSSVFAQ
# T2 sequence (Q8NBP7 153-692 limits assumed): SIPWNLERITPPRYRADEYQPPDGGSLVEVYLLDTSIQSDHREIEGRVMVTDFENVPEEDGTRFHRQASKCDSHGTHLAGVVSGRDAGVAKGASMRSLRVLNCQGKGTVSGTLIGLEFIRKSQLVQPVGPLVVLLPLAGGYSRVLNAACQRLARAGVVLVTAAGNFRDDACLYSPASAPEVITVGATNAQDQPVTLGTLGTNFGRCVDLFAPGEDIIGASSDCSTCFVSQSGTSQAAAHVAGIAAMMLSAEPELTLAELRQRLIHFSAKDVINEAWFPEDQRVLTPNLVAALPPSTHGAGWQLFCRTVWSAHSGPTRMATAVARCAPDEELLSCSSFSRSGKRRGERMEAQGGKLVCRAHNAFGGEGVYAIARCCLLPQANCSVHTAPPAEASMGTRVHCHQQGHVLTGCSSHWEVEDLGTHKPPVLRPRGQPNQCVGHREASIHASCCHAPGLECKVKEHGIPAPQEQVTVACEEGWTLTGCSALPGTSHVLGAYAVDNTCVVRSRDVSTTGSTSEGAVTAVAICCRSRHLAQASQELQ
# T2 sequence (P01130 22-860 partner limits assumed): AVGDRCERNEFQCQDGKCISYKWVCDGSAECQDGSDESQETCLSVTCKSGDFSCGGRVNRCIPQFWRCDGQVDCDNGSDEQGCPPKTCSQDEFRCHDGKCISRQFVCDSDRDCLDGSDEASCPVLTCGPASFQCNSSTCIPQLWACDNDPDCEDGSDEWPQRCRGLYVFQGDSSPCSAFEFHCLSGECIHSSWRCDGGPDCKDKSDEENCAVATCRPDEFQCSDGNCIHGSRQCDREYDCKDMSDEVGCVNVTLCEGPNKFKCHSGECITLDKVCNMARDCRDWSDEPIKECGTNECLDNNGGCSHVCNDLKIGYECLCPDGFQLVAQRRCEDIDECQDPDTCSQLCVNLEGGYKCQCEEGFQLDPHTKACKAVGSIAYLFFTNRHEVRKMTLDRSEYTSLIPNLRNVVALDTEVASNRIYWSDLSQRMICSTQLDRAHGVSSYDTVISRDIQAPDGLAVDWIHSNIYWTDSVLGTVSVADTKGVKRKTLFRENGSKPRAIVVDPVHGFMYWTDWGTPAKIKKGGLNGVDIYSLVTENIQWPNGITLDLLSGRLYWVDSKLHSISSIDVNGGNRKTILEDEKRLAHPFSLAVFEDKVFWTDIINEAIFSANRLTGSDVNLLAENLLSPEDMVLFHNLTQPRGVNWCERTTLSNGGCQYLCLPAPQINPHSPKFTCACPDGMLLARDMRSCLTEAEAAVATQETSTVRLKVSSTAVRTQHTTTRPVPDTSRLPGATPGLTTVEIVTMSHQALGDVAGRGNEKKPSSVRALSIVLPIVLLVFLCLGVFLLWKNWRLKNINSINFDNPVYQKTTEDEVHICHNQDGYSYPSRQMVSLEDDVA
# T1 sequence (Q8NBP7 31-152 limits assumed): as the sequence (Q8NBP7 31-152 limits assumed) above
# T1 sequence (Q8NBP7 153-692 limits assumed): as the sequence (Q8NBP7 153-692 limits assumed) above
# Proprotein convertase subtilisin/kexin type 9 (Mus musculus, UniProt Q80W65), sequence (Q80W65 35-155 limits assumed): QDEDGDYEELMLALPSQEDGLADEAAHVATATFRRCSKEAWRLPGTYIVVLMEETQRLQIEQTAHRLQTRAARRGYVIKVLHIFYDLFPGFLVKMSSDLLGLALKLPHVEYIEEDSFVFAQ
# Proprotein convertase subtilisin/kexin type 9 (Mus musculus, UniProt Q80W65), sequence (Q80W65 156-694 limits assumed): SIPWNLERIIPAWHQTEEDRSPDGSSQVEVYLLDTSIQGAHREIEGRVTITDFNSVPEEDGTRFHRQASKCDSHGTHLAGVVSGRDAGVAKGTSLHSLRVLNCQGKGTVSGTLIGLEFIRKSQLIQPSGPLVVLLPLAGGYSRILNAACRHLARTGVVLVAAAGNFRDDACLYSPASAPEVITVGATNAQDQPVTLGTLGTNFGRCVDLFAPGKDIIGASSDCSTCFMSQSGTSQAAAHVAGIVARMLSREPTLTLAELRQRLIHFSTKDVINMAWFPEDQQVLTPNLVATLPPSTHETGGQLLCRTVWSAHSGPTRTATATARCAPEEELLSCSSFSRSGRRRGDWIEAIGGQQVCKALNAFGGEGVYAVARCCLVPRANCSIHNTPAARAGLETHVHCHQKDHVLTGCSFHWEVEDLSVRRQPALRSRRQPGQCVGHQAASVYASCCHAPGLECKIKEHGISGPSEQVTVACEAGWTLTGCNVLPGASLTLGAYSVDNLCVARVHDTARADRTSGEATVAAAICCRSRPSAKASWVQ
Compound,IC50 [1] [nM],Activity [2] [%],Kd [3] [nM],Activity [4] [%],EC50 [5] [nM],Kd [6] [nM],IC50 [7] [nM],EC50 [8] [nM],inhibition [9] [%],EC50 [10] [nM]
CC(=O)N[C@H](CSCc1cn(CCCCCC(=O)NCCOCCOCCOCCOCCOCCOCCOCCOCCOCCOCCC(=O)NCCCC[C@H](NC(=O)COCCOCCOCCOCCOCCOCCOCCOCCOCCOCCNC(=O)C(N)CCCCn2cc(CSC[C@@H](NC(C)=O)C(=O)N[C@H](C(=O)N[C@H](C(=O)N[C@@H](Cc3ccccc3)C(=O)N[C@H](C(=O)N[C@@H](CO)C(=O)N[C@@H](Cc3c[nH]c4ccccc34)C(=O)N[C@@H](CCC(=O)O)C(=O)N[C@@H](CCC(=O)O)C(=O)N[C@@H](Cc3ccc(O)cc3)C(=O)N[C@@H](CC(C)C)C(=O)N[C@@H](CC(=O)O)C(=O)N[C@@H](Cc3c[nH]c4ccccc34)C(=O)N[C@H](C(=O)N[C@@H](CCCNC(=N)N)C(=O)N[C@@H](CCCNC(=N)N)C(=O)NCC(=O)O)C(C)C)[C@@H](C)O)C(C)C)[C@@H](C)O)nn2)C(=O)NCC(=O)N[C@@H](CCCNC(=N)N)C(=O)N[C@@H](CCCNC(=N)N)C(=O)N[C@@H](CCCCN)C(=O)N[C@@H](Cc2c[nH]c3ccccc23)C(N)=O)nn1)C(=O)N[C@H](C(=O)N[C@H](C(=O)N[C@@H](Cc1ccccc1)C(=O)N[C@H](C(=O)N[C@@H](CO)C(=O)N[C@@H](Cc1c[nH]c2ccccc12)C(=O)N[C@@H](CCC(=O)O)C(=O)N[C@@H](CCC(=O)O)C(=O)N[C@@H](Cc1ccc(O)cc1)C(=O)N[C@@H](CC(C)C)C(=O)N[C@@H](CC(=O)O)C(=O)N[C@@H](Cc1c[nH]c2ccccc12)C(=O)N[C@H](C(=O)N[C@@H](CCCNC(=N)N)C(=O)N[C@@H](CCCNC(=N)N)C(=O)NCC(=O)O)C(C)C)[C@@H](C)O)C(C)C)[C@@H](C)O (stereo partly specified),230,–,–,–,–,–,–,–,–,–
CCNC(=O)[C@@H]1CSCC(=O)N[C@@H](Cc2ccccc2)C(=O)N[C@@H](C(C)C)C(=O)N2CCC[C@H]2C(=O)N[C@@H]([C@@H](C)O)C(=O)N[C@@H]([C@@H](C)O)C(=O)N[C@@H](Cc2ccc(-c3ccccc3)cc2)C(=O)N(C)[C@@H](C)C(=O)N[C@@H](Cc2ccc(-c3ccccc3)cc2)C(=O)N(C)[C@@H](C)C(=O)N[C@@H](CCC(=O)O)C(=O)N[C@@H](C)C(=O)N2CCC[C@H]2C(=O)N1,–,43,6.1,90,170,21,2,–,–,–
CC(=O)N[C@H](C(=O)N[C@H](C(=O)N[C@@H](Cc1ccccc1)C(=O)N[C@H](C(=O)N[C@@H](CO)C(=O)N[C@@H](Cc1c[nH]c2ccccc12)C(=O)N[C@@H](CCC(=O)O)C(=O)N[C@@H](CCC(=O)O)C(=O)N[C@@H](Cc1ccc(O)cc1)C(=O)N[C@@H](CC(C)C)C(=O)N[C@@H](CC(=O)O)C(=O)N[C@@H](Cc1c[nH]c2ccccc12)C(=O)N[C@H](C(N)=O)C(C)C)[C@@H](C)O)C(C)C)[C@@H](C)O,–,–,–,–,–,–,800,5000,56.5,6000
